Measurements taken from patent publication US20130202530A1, “NOVEL RADIOTRACER” (IMPERIAL COLLEGE, priority 2010, published 2013).

Tests used:
[1] = tested on: human colon carcinoma xenograft HCT116; test: Imaging response to PD0325901 treatment by [18F]D4-FCH-PET; format: in vivo, mice
Experimental: Size-matched HCT116 tumor bearing mice were randomized to receive daily treatment by oral gavage of vehicle (0.5% hydroxypropyl methylcellulose+0.2% Tween 80) or 25 mg/kg (0.005 mL/g mouse) of the mitogenic extracellular kinase inhibitor, PD0325901, prepared in vehicle. [^18F]D4-FCH-PET scanning was done after 10 daily treatments with the last dose administered 1 h before scanning. […] The results are illustrated in FIGS. 18 and 19.
These studies were performed in a reproducible tumor model system in which treatment outcomes had been previously characterized, i.e., the human colon carcinoma xenograft HCT116 treated with PD0325901 daily for 10 days (Leyton, J., et al., “Noninvasive imaging of cell proliferation following mitogenic extracellular kinase inhibition by PD0325901”, Mol Cancer Ther 2008; 7(9):3112-21). […] All imaging variables decreased after 10 days of drug treatment (P=0.05, FIG. 18). […] To understand the biomarker changes, the intrinsic cellular effect of PD0325901 on D4-FCH-phosphocholine formation was examined by treating exponentially growing HCT116 cells in culture with PD0325901 for 24 h and measuring the 60-min uptake of [^18F]D4-FCH in vitro.

CHKA = CHKA expression in exponentially growing cells treated with PD0325901; format: cell-based
[2] = tested on: HCT116 human colon xenografts; details: mouse, in vivo
Experimental: Time course biodistribution was carried out for [^18F]fluoromethylcholine, [^18F]fluoromethyl-[1-^2H2]choline and [^18F]fluoromethyl-[1,2-^2H4]choline in nude mice bearing HCT116 human colon xenografts.
Human colon (HCT116) tumors were grown in male C3H-Hej mice (Harlan, Bicester, United Kingdom) as previously reported (Leyton, J., et al., Cancer Research 2005; 65(10):4202-10). Tumor dimensions were measured continuously using a caliper and tumor volumes were calculated by the equation: volume=(π/6)×a×b×c, where a, b, and c represent three orthogonal axes of the tumor. Mice were used when their tumors reached approximately 100 mm^3. […] The mice were sacrificed at pre-determined time points (2, 30 and 60 min) after radiotracer injection under terminal anesthesia to obtain blood, plasma, tumor, heart, lung, liver, kidney and muscle. Tissue radioactivity was determined on a gamma counter (Cobra II Auto-Gamma counter, Packard Biosciences Co, Pangbourne, UK) and decay corrected. Data were expressed as percent injected dose per gram of tissue.

[3] = tested on: human melanoma SKMEL-28 xenografts; details: mouse, in vivo
Experimental: Dynamic [^18F]FCH and [^18F]D4-FCH imaging scans were carried out on a dedicated small animal PET scanner, quad-HIDAC (Oxford Positron Systems). The features of this instrument have been described previously (Barthel, H., et al., Cancer Res 2003; 63(13):3791-8). For scanning the tail veins, vehicle- or drug-treated mice were cannulated after induction of anesthesia (isofluorane/O2/N2O). The animals were placed within a thermostatically controlled jig (calibrated to provide a rectal temperature of ˜37° C.) and positioned prone in the scanner. [^18F]FCH or [^18F]D4-FCH (2.96-3.7 MBq) was injected via the tail vein cannula and scanning commenced. Dynamic scans were acquired in list mode format over a 60 min period as reported previously (Leyton, J., et al., Cancer Research 2006; 66(15):7621-9). […] Dynamic data from these slices were averaged for each tissue (liver, kidney, muscle, urine, and tumor) and at each of the 19 time points to obtain time versus radioactivity curves. Corresponding whole body time versus radioactivity curves representing injected radioactivity were obtained by adding together radioactivity in all 200×160×160 reconstructed voxels. Tumor radioactivity was normalized to whole-body radioactivity and expressed as percent injected dose per voxel (% ID/vox). […] The area under the curve was calculated as the integral of % ID/vox from 0 to 60 min.

[4] = 20 min
Text: The effect of deuterium substitution on bond strength was initially tested by evaluation of the chemical oxidation pattern of [^18F]fluoromethylcholine and [^18F]Fluoromethyl-[1,2-^2H4]choline using potassium permanganate.

[5] = mouse, in vivo
Experimental: [^18F]FCH or [^18F](D4-FCH) (80-100 μCi) was injected via the tail vein into anesthetized non-tumor bearing C3H-Hej mice; isofluorane/O2/N2O anesthesia was used. Plasma samples obtained at 2, 15, 30 and 60 minutes after injection were snap frozen in liquid nitrogen and stored at −80° C. For analysis, samples were thawed and kept at 4° C. To approximately 0.2 mL of plasma was added ice-cold acetonitrile (1.5 mL). The mixture was then centrifuged (3 minutes, 15,493×g; 4° C.). The supernatant was evaporated to dryness using a rotary evaporator (Heidoloph Instruments GMBH & C0, Schwabach, Germany) at a bath temperature of 45° C. The residue was suspended in mobile phase (1.1 mL), clarified (0.2 μm filter) and analyzed by HPLC. […] All samples were analyzed on an Agilent 1100 series HPLC system equipped with a γ-RAM Model 3 radio-detector (IN/US Systems inc., FL, USA). The analysis was based on the method of Roivannen (Roivainen, A., et al., European Journal of Nuclear Medicine 2000; 27:25-32) using a Phenomenex Luna SCX column (10μ, 250×4.6 mm) and a mobile phase comprising of 0.25 M sodium dihydrogen phosphate (pH 4.8) and acetonitrile (90:10 v/v) delivered at a flow rate of 2 ml/min.

choline oxidase = target: T1, choline oxidase (Arthrobacter globiformis, UniProt Q7X2H8); test: Enzymatic oxidation study using choline oxidase; details: 60 minute time point, room temperature
T1 sequence (Q7X2H8 1-546): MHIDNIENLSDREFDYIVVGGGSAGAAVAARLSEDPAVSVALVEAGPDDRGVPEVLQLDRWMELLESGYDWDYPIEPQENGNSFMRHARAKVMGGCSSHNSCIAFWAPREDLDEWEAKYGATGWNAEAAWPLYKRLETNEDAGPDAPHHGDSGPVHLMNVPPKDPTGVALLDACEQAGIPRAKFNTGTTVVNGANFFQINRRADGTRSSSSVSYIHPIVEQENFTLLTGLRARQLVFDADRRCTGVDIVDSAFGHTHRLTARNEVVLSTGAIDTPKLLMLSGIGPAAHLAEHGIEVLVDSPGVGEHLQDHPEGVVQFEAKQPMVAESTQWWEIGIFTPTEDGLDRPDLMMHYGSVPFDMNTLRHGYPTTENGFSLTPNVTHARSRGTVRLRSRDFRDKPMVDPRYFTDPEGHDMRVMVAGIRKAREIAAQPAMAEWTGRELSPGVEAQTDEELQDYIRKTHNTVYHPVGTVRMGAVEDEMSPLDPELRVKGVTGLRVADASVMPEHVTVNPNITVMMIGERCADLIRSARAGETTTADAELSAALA
Experimental: [^18F]fluoromethylcholine and [^18F]fluoromethyl-[1,2-^2H4]choline were evaluated in a choline oxidase model (Roivainen, A., et al., European Journal of Nuclear Medicine 2000; 27:25-32).
An aliquot of either [^18F]Fluoromethylcholine or [^18F]fluoromethyl-[1,2-^2H4]choline [^18F](100 μL, ˜3.7 MBq) was added to a vial containing water (1.9 mL) to give a stock solution. Sodium phosphate buffer (0.1 M, pH 7) (10 uL) containing choline oxidase (0.05 units/uL) was added to an aliquot of stock solution (190 uL) and the vial was then left to stand at room temperature, with occasional agitation. At selected time-points (5, 20, 40 and 60 minutes) the sample was diluted with HPLC mobile phase (buffer A, 1.1 mL), filtered (0.22 μm filter) and then ˜1 mL injected via a 1 mL sample loop onto the HPLC for analysis. Chromatographic separation was performed on a Waters C18 Bondapak (7.8×300 mm) column (Waters, Milford, Mass., USA) at 3 mL/min with a mobile phase of buffer A, which contained acetonitrile, ethanol, acetic acid, 1.0 mol/L ammonium acetate, water, and 0.1 mol/L sodium phosphate (800:68:2:3:127:10 [v/v]) and buffer B, which contained the same constituents but in different proportions (400:68:44:88:400:10 [v/v]). The gradient program comprised 100% buffer A for 6 minutes, 0-100% buffer B for 10 minutes, 100-0% B in 2 minutes then 0% B for 2 minutes.

Row | SMILES | [18F]D4-FCH radiotracer retention in treated tumors ([1]; 25 mg/kg daily for 10 days, versus vehicle) | imaging variables (% ID/vox60, % ID/vox60max, AUC) ([1]; after 10 days of drug treatment, [18F]D4-FCH-PET) | CHKA expression in vitro (CHKA) | tumor uptake (localization of radiotracer) [2] | % IDvox60max (average of the maximum pixel % ID/vox60 across 5 slices) [3] | proportion of the parent compound remaining [4] | percentage of parent compound in plasma [5] | parent radiotracer present (radio-HPLC distribution of choline species) (choline oxidase) [%]
1 | O=C(NOC[C@H](O)CO)c1ccc(F)c(F)c1Nc1ccc(I)cc1F [PD0325901] | marked reduction in radiotracer retention | decreased | reduction | – | – | – | – | –
2 | [2H]C([2H])(O)C([2H])([2H])[N+](C)(C)C[18F] [[^18F]D4-FCH, [^18F]fluoromethyl-[1,2-^2H4]-choline] | – | – | – | pronounced increase in tumor uptake | significantly higher | greater proportion of the parent compound remaining | consistently higher | 29±4
3 | C[N+](C)(C[18F])CCO [[^18F]FCH, [^18F]Fluoromethylcholine, reference compound] | – | – | – | – | – | – | – | 11±8
